The text below walks through data of US20250214973A1, “1,4,5-TRISUBSTITUTED-1,2,3-TRIAZOLES AND USES THEREOF” (UNIVERSITY OF PUERTO RICO, priority 2022, published 2025).

Some results are limits rather than exact numbers.

For series [1], the system named is human mammary epithelial cells (HMEC). Put plainly: Cell viability assay (MTT). As to conditions: 0-1000 nM. Format: cell-based. The method, then: Cells were treated with 4c at concentrations ranging from 0-1000 nM. Cell viability was assessed by a MTT assay. n=2.
Equal number of cells were seeded in a 24 well plate and incubated with vehicle or compounds according to this disclosure at concentrations between 1 and 0.001 nM for 72 and 120 hrs. Using CellTiter 96 Non-Radioactive Cell Proliferation Assay (Promega, Corp.) according to manufactures' instructions, formazan was used as an indicator of viable cells at an absorbance 570 nm in a Tecan Microplate Reader M100. Data was calculated as fold change from vehicle and fitted using the 4′parameter logic nonlinear regression model in GraphPad Prism software. (n=3 biologic replicates: with 3 technical replicates each).

The test system of another series is Panc-1. Description: Cell viability assay (MTT). The class given is cell-based. The conditions noted are these: Homo sapiens, 120 hours, 0-1000 nM. Here is the method: (§1) […] Using CellTiter 96 Non-Radioactive Cell Proliferation Assay (Promega, Corp.) according to manufactures' instructions, formazan was used as an indicator of viable cells at an absorbance 570 nm in a Tecan Microplate Reader M100. Data was calculated as fold change from vehicle and fitted using the 4′parameter logic nonlinear regression model in GraphPad Prism software. (n=3 biologic replicates: with 3 technical replicates each).

The target of another series is T1, Vav2 binding to Rac1 (Homo sapiens, UniProt P63000, G15A).
T1 construct: purchased Cell Biolabs, San Diego; CA; host or cells: Vav2 from MDA-MB-231 cell lysate
Put plainly: Rac1 GEF assay, Rac1(G15A) pulldown. As to conditions: 250 nM, MDA-MB-231 lysates. The method, then: GST-Rac1 (G15A) beads were pre-incubated with vehicle (0.1% DMSO), or 8 μM EHop-016, or 250 nM Compound 4c for 1 hour followed by incubation with MDA-MB-231 cell lysates (equal total protein). Representative Western blot for Rac1(G15A) or pulldowns immunostained for Vav2 is shown (n=3).
MDA-MB-231 cells in culture medium were lysed in 1% Triton X-100, 20 mM HEPES, pH 7.4, 150 mM NaCl, 5 mm MgCl2, and protease inhibitors and processed. Equal amounts of protein from cleared lysates were incubated for 1 h at 4° C. with glutathione-agarose beads conjugated to GST-Rac1(G15A) nucleotide-free mutant (Cell Biolabs, San Diego. CA) that were preincubated (for 1 h) with vehicle or 8 μm EHop-016 or 0.25 μM Compound 4c. The beads were washed, and the lysates and pull-downs were immunoblotted for Tiam-1, Trio, Ect2, p-REX, or Vav2.

The subject of a further series is MDA-MB-231. Description: Cell viability assay (MTT). Format: cell-based. As to conditions: Homo sapiens, MDA-MB-231. Here is the method: Cells plated at equal density were treated at 500 nM of compounds. […]
Cells plated at equal density were treated at 250 nM of 4c at 250 nM.
Data from 3 biologic replicates each with 2 technical replicates. Four parameter dose-response curves generated using GraphPad Prism are shown.
Cell viability relative to vehicle (100%) is shown.
as §1
A range of compounds were tested by MTT assays for cell viability in MDA-MB-231 triple negative breast cancer (TNBC) cells and MDA-MB-435 HER2++ cancer cells.

Series [2] deals with A549 lung adenocarcinoma cells. Description: EGF-induced membrane ruffles, F-actin staining. The class given is cell-based. As to conditions: 24 h. Here is the method:
Cells were stimulated with EGF (200 ng/ml) for 5 min, and fixed and stained with Rhodamine Phalloidin for F-actin.
Cells were grown on glass coverslips and treated with vehicle or 4c for 24h. Lung cancer cells that were stimulated with epidermal growth factor (EGF) were serum starved prior to stimulation with 200 ng/ml EGF for 5 min. Following fixation in 4% formaldehyde, cells were stained for F-actin with Rhodamine phalloidin and visualized by fluorescence microscopy. 5 random fields were scored for the number of ruffles.

The target in a further series is T2, Rac1 (Homo sapiens, UniProt P63000).
T2 construct: endogenous in cells; host or cells: MDA-MB-231
Description: Rac activation assay (PAK-PBD pulldown). Format: cell-based. The conditions noted are these: 250 nM, 24 hours, MDA-MB-231. Here is the method:
MDA-MB-231 breast cancer cells were treated for 24 hours with 0 or 250 nM 4c. Cells were lysed and equal amounts of proteins were subjected to pull-down assays using the p21-binding domain of PAK to isolate GTP bound Rac. Top panel, pulldown showing GTP bound Rac1; middle panel, total Rac1 in lysates; bottom panel, actin as a loading control.
MDA-MB-231 triple negative breast cancer cells were seeded at equal density and treated with vehicle or Compound 4c for 24 hrs at various concentrations. Rac-GTP was detected using Rac Activity Assay, as per manufacturer's instructions (Cell Signaling). Briefly, total cell lysates were quantified and added equally to Pak-PBD beads. After 1 hr of incubation, beads were washed and Rac1-GTP (in pellets) or total Rac1 (in cell lysates) was detected by western blot using Rac1 antibody. (n=3 biological replicates).

`CCn1c2ccccc2c2cc(-n3nnc(C(O)c4cccc(OC)c4)c3-c3ccccc3)ccc21` (stereo not drawn) [Compound 4c, (1-(9-ethyl-9H-carbazol-3-yl)-5-phenyl-1H-1,2,3-triazol-4-yl) (3-methoxyphenyl) methanol]: in series [1], the “effect on non-transformed HMEC viability” value is listed as “did not affect”. For the same molecule, the GI50 is 0.235 µM in the series with Panc-1 and approximately 0.3 µM in the series with MDA-MB-231 (summary over breast cancer cell lines, read-out: GI50 for breast cancer cell viability inhibition). In addition, the inhibition at […] on Vav2 binding to Rac1 is approximately 80%. The cytotoxicity at 0.5 µM in the series with MDA-MB-231 (500 nM, 72 hours, read-out: inhibition of MDA-MB-231 cell viability) is less than 50%. In addition, the “reduction of membrane ruffles in response to EGF” value is 20% in series [2] (250 nM), approximately 38% in series [2] (500 nM) and 58% in series [2] (1000 nM). Further, the “reduction of Rac1 activation by GTP loading” value on Rac1 turned out to be 85%.

The term GI50 denotes the concentration giving 50% growth inhibition. What is called inhibition is the change of the read-out against control, counted positive when it falls. A higher inhibition goes with strong suppression.
